Reference: patent publication US20190000976A1, “Purgative Composition” (CTC BIO, INC., priority 2016, published 2019)

Legend:
[1] = Stability of sodium picosulfate in solution alone, with polyethylene glycol 4000 or with sorbitol (content by HPLC, British Pharmacopoeia); type: physicochemical
Method: The solution was stored at room temperature, in accelerated condition (40° C., 75%RH), and stress condition (60° C., 75%RH).

[2] = Stability of sodium picosulfate in polyethylene glycol 3350 / sorbitol solution with sodium hydrogencarbonate or sodium citrate, 3 weeks (content by HPLC); type: physicochemical; conditions: by comprising sodium hydrogencarbonate or sodium citrate
Method: The solution was stored at room temperature or stress condition (60° C., 75%RH) for 3 weeks. The content of sodium picosulfate was evaluated. The content of sodium picosulfate was determined by ‘Sodium picosulfate powder for oral solution’ test method of British Pharmacopoeia using high performance liquid chromatography.

With `O=S(=O)(O)Oc1ccc(C(c2ccc(OS(=O)(=O)O)cc2)c2ccccn2)cc1` [sodium picosulfate] the “Content (%) of sodium picosulfate, After 1 week Accelerated condition” value ([1]; 1 week, accelerated condition (40° C., 75%RH)) was 102.2%, the “Content (%) of sodium picosulfate, After 1 week Room temp.” value ([1]; 1 week, room temperature) was 102.2% and the “Content (%) of sodium picosulfate, After 1 week Stress condition” value ([1]; 1 week, stress condition (60° C., 75%RH)) was 102.4%. For the same compound, the “Content (%) of sodium picosulfate, After 2 weeks Room temp.” value ([1]; 2 weeks, room temperature) was 102.4%, the “Content (%) of sodium picosulfate, After 2 weeks Stress condition” value ([1]; 2 weeks, stress condition (60° C., 75%RH)) was 102.5% and the “Content (%) of sodium picosulfate, Initial” value ([1]; Initial, 300 ml solution) was 102.4%. The “Stability of sodium picosulfate (in words)” value ([1]; when mixed with polyethylene glycol) was “very unstable” and the “Instability of sodium picosulfate caused by mixing with polyethylene glycol (in words)” value [2] was “improved dramatically”.
